The test system of one series is premature labor. The note with it: compared with ritodrine; cited from earlier work.
The next series concerns the target T1, uterine OT receptors (Rattus norvegicus, UniProt P70536).
T1 construct: from tissue; host or cells: rat uterus (DES-treated), crude membrane preparation
T1 sequence (P70536 1-388): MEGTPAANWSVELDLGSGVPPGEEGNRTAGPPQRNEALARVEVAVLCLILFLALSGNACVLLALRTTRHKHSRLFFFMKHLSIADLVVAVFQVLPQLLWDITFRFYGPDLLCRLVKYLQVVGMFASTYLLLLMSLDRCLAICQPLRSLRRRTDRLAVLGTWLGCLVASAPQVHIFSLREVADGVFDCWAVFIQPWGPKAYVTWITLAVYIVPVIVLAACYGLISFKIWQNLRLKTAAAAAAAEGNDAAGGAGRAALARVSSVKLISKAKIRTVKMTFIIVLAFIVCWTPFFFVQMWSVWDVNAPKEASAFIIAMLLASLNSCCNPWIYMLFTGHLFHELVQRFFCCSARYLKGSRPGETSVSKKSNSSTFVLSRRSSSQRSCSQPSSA
The series can be described thus: Radioligand binding assay: competition of [3H]oxytocin binding to a crude membrane preparation of uteri from DES-treated rats. The note with it: 1 nM [3H]OT; 60 minutes; 22° C.; pH 7.4; rat uterus membranes. The protocol: The high affinity binding of [^3 H] Oxytocin (OT)([tyrosyl, 3,5-[^3 H]OT; 30-60 Ci/mmol; New England Nuclear. Boston, Mass.) to uterine OT receptors was based on an assay (Fuchs, A-R; Fuchs, F; Soloff, MS. 1985 J. Clin. Endocrinol. Metab. 60:37) using a crude membrane preparation of uteri taken from diethylstilbestrol dipropionate (DES)-treated (0.3 mg/kg, ip; 18-24) rats. Competition studies were conducted at equilibrium (60 minutes; 22° C.) using 1 nM[^3 H]OT in the following assay buffer: 50 mM Tris-HCl, 5 mM MgCl2, and 0.1% BSA, pH 7.4. Nonspecific binding (10% of the total binding) was determined using 1 μM unlabeled OT and the binding reaction was terminated by filtration through glass fiber filters using a cell harvester (model 7019, Skatron, Inc., Sterling, Va.). IC50 (the concentration of tested compound that inhibits 50% of OT) was reported, unless otherwise noted.
IC50 values were determined for both [^3 H]OT and [^3 H]AVP binding assays by linear regression of the relation log concentration of compound vs. percent inhibition of specific binding.

The conditions of series [1]: cited from earlier work.

Like-named read-outs stand apart in the source and are kept apart here.

As for `CCO` [Ethanol], in the series on premature labor, the “effectiveness in preventing premature labor (in words)” value was “as effective as ritodrine in preventing premature labor” and the “reduction in the incidence of fetal respiratory distress (in words)” value is reported as “does not produce a corresponding reduction in the incidence of fetal respiratory distress that administration of ritodrine does”. As for `O=C(Cc1ccc2c(c1)OCO2)N1CCC2(C=Cc3ccccc32)CC1` [Example 10], the half-maximal inhibitory concentration (IC50) (as a rule, the concentration needed to halve the response being measured) on uterine OT receptors was determined as 3700 nM. Still for that read-out and setting: the value for `O=C(Nc1ccc(CC(=O)N2CCC3(C=Cc4ccccc43)CC2)cc1)c1ccc2[nH]cnc2c1` [Example 12] was 150 nM; that for `O=C(CCc1c[nH]cn1)Nc1ccc(CC(=O)N2CCC3(CCc4ccccc43)CC2)cc1` [Example 14] was 170 nM. On the same count and under the same terms, the value for `O=C(Nc1ccc(CC(=O)N2CCC3(C=Cc4ccccc43)CC2)cc1)c1ccc2[nH]ccc2c1` [Example 15] was 310 nM. For `O=C(Nc1ccc(CC(=O)N2CCC3(C=Cc4ccccc43)CC2)cc1)c1ccc2[nH]nnc2c1` [Example 16], the IC50 at uterine OT receptors was 520 nM. Take `O=S(=O)([O-])[O-].[Mg+2]` [Magnesium sulfate]: the “toxicity at plasma concentrations above the therapeutic range (in words)” value in series [1] (above 4 to 8 mg/dL plasma) is “can cause inhibition of cardiac conduction and neuromuscular transmission, respiratory depression and cardiac arrest”. Further, the “therapeutic range of plasma concentrations” value in series [1] (plasma) is given as 4 to 8 mg/dL. Take `CC(NCCc1ccc(O)cc1)C(O)c1ccc(O)cc1` (stereo not drawn) [Ritodrine]: the “side effects (in words)” value in series [1] (tocolytic use, in the mother) is “causes a number of cardiovascular and metabolic side effects in the mother, including tachycardia, increased renin secretion, hyperglycemia (and reactive hypoglycemia in the infant)”. As for `CC(C)(C)NCC(O)c1ccc(O)c(CO)c1` (stereo not drawn) [albuterol], the “side effects (in words)” value in series [1] (in vivo) is given as “side effects similar to those of ritodrine”. For `CC(C)(C)NCC(O)c1cc(O)cc(O)c1` (stereo not drawn) [terbutaline], the “side effects (in words)” value in series [1] (tocolytic use, in the mother) is “side effects similar to those of ritodrine”.

(Values after US5670509A, “Tocolytic oxytocin receptor antagonists” (priority 1995, dated 1997).)
